The source of these data is patent US7030150B2, “Benzimidazole compounds and antiviral uses thereof” (Trimeris, Inc., priority 2001, dated 2006).

The test system of one series is uninfected Hep2 cells.
Details: not given
A word on the CC50: it is the concentration at which the toxic effect on the cells reaches its halfway point. As to `FC(F)(F)Oc1ccc(CNCc2nc3ccccc3n2Cc2nc3ccccc3[nH]2)cc1` [compound 115], the CC50 is at least 100 µM.
Still for that read-out and setting: then `Clc1cccc(CNCc2nc3ccccc3n2Cc2nc3ccccc3[nH]2)c1` [compound 157], with at least 100 µM; and `c1cncc(CNCc2nc3ccccc3n2Cc2nc3ccccc3[nH]2)c1` [compound 113], with at least 100 µM.
Molecule `COc1cccc(CCNCc2nc3ccccc3n2Cc2nc3ccccc3[nH]2)c1` [compound 135] gave a CC50 of at least 100 µM.
On the same count and under the same terms, then `Clc1ccc(CNCc2nc3ccccc3n2Cc2nc3ccccc3[nH]2)cc1Cl` [compound 138], with 6.5 µM.
Still for that read-out and setting: then `CC(C)NCc1nc2ccccc2n1Cc1nc2ccccc2[nH]1` [compound 152], with at least 100 µM; and `OCC1CCCCN1Cc1nc2ccccc2n1Cc1nc2ccccc2[nH]1` (stereo not shown) [compound 210], with 8 µM; and `COC(=O)CN(C)Cc1nc2ccccc2n1Cc1nc2ccccc2[nH]1` [compound 95], with at least 100 µM.

The next series concerns poliovirus type 1. To be noted: monkey kidney and HeLa cell cultures; cited from earlier work.
As to `OC(c1ccccc1)c1nc2ccccc2[nH]1` (stereo not drawn) [2-(α-hydroxybenzyl)benzimidazole], the “inhibition of poliovirus type 1” value is given as “inhibits”.

The test system of a further series is picornaviruses. To be noted: cited from earlier work.
Consider `c1ccc2[nH]cnc2c1` [benzimidazole], for which the “antiviral activity against an assortment of picornaviruses” value (from here on “antiviral activity against an assortment”) was “active”.
For `OC(c1nc2ccccc2[nH]1)C(O)c1nc2ccccc2[nH]1` (stereo not shown) [1,2-bis(2-benzimidazole)-1,2-ethanediol], the “antiviral activity against an assortment” value is “active”.
As for `OC(c1ccccc1)c1nc2ccccc2[nH]1` (stereo not drawn) [2-(α-hydroxybenzyl)benzimidazole], the “antiviral activity against an assortment” value is “active”.

Another series has as its system rhinoviruses. To be noted: cited from earlier work.
`COc1ccc2[nH]c(C(O)C(O)c3nc4cc(OC)ccc4[nH]3)nc2c1` (stereo not shown) [1,2-(5-methoxy-2-benzimidazole)-1,2-ethanediol]: the “inhibition of the cytopathic effect” value was 100%.
